Data taken from patent publication US11000033B2, “Ketone or oxime compound, and herbicide” (NISSAN CHEMICAL CORPORATION, priority 2014, dated 2021).

Assays:
Assay type in all cases: in vivo
Lolium multiflorum Lam. = experiment: Test Example 5: herbicidal effect by foliage application, plastic box (symbol K); conditions: 320 g/ha, 3 weeks after application
Method in brief: (§1)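 Visual herbicidal score, taken three weeks post-application, of seedlings sprayed on the foliage with water-diluted emulsion at a predetermined amount; plants were 14 days old, greenhouse-raised at 25° C. to 30° C.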

Monochoria vaginalis [1] = experiment: Test Example 2: herbicidal activity, application during weed generation in submerged conditions (symbol C); conditions: Table 23; application herbicide amount 320 g/ha; grade 0-5 by criteria of Test Example 1
Method in brief: (§2)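 Paddy pot test, submerged (4 cm water), alluvial soil, mixed sowing; greenhouse 25–30° C. Emulsion formulation diluted to predetermined rate, applied onto floodwater at 1–2 leaf stage. Visual herbicidal rating at 3 wk post-treatment.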

Scirpus juncoides = experiment: Test Example 2: herbicidal activity, application during weed generation in submerged conditions (symbol B); conditions: Table 23; application herbicide amount 320 g/ha; grade 0-5 by criteria of Test Example 1
Method in brief: as §2

[2] = test system: Echinochloa oryzacola Vasing.; experiment: Test Example 1: herbicidal activity, application before weed generation in submerged conditions (symbol A); conditions: application herbicide amount 320 g/ha
Method in brief: (§3)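 Compound emulsion was diluted to a set herbicide amount and applied to the water surface on the sowing day, into submerged (4 cm) alluvial-soil pots sown with mixed weed seeds and transplanted 2.5-leaf rice. Pots were held in a 25–30 °C greenhouse, and weeds were scored 0–5 by herbicidal ratio after 3 weeks.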

beet [3] = experiment: Test Example 5: effect on crop by foliage application, plastic box (symbol f); conditions: 320 g/ha, 3 weeks after application
Method in brief: (§4)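 Sterilized diluvial soil, plastic box (21 × 13 × 7 cm); spot sowing, ~1.5 cm soil cover; greenhouse 25–30° C.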

beet [4] = experiment: Test Example 4: effect on crop by soil treatment (symbol f); conditions: for Effect on crop grade, f: beet: application herbicide amount 320 g/ha
From the text: (§5) Herbicidal Effect Test by Soil Treatment
(§6) Sterilized diluvial soil was placed in a plastic box having a length of 21 cm, a width of 13 cm, and a depth of 7 cm. Each of the seeds of Digitaria ciliaris, Setaria viridis, Echinochloa crus-galli var. crus-galli, Avena fatua, Alopecurus myosuroides, Lolium multiflorum Lam., Apera spica-venti, Abutilon theophrasti, Amaranthus retroflexus, Chenopodium album, Stellaria media, Galium spurium, Veronica persica, corn, soybean, rice, wheat, beet, and rapeseed was sowed in a spot-like manner and was covered with the soil of a thickness of about 1.5 cm. […] The plastic box was placed in a greenhouse of 25° C. to 30° C. to grow plant.

Abutilon theophrasti = experiment: Test Example 4: herbicidal effect by soil treatment (symbol M); conditions: for Herbicidal effect grade, M: Abutilon theophrasti: application herbicide amount 320 g/ha
From the text: as §5
(§7) Sterilized diluvial soil was placed in a plastic box having a length of 21 cm, a width of 13 cm, and a depth of 7 cm. Each of the seeds of Digitaria ciliaris, Setaria viridis, Echinochloa crus-galli var. crus-galli, Avena fatua, Alopecurus myosuroides, Lolium multiflorum Lam., Apera spica-venti, Abutilon theophrasti, Amaranthus retroflexus, Chenopodium album, Stellaria media, Galium spurium, Veronica persica, corn, soybean, rice, wheat, beet, and rapeseed was sowed in a spot-like manner and was covered with the soil of a thickness of about 1.5 cm. Subsequently, the emulsion agent of the compound present invention prepared in accordance with Formulation Example 2 was diluted with water so as to be a predetermined herbicide amount and the diluted emulsion agent was uniformly applied to the surface of the soil with a small-size spray. The plastic box was placed in a greenhouse of 25° C. to 30° C. to grow plant. 3 weeks later from the herbicide application, the effect to each plant was investigated in accordance with the criteria of Test Example 1.

Setaria viridis = experiment: Test Example 4: herbicidal effect by soil treatment (symbol G); conditions: for Herbicidal effect grade, G: Setaria viridis: application herbicide amount 320 g/ha
From the text: as §5, §7

rice plant = experiment: Test Example 5: effect on crop by foliage application, plastic box (symbol b); conditions: 320 g/ha, 3 weeks after application
Method in brief: as §4

Alopecurus myosuroides = experiment: Test Example 5: herbicidal effect by foliage application, plastic box (symbol J); conditions: 320 g/ha, 3 weeks after application
Method in brief: as §1

Monochoria vaginalis [5] = experiment: Test Example 1: herbicidal activity, application before weed generation in submerged conditions (symbol C); conditions: application herbicide amount 320 g/ha
Method in brief: as §3

wheat = experiment: Test Example 4: effect on crop by soil treatment (symbol e); conditions: for Effect on crop grade, e: wheat: application herbicide amount 320 g/ha
From the text: as §5, §6

[6] = test system: Echinochloa oryzacola Vasing.; experiment: Test Example 2: herbicidal activity, application during weed generation in submerged conditions (symbol A); conditions: Table 23; application herbicide amount 320 g/ha; grade 0-5 by criteria of Test Example 1
Method in brief: as §2

Amaranthus retroflexus = experiment: Test Example 5: herbicidal effect by foliage application, plastic box (symbol N); conditions: 320 g/ha, 3 weeks after application
Method in brief: as §1

corn = experiment: Test Example 4: effect on crop by soil treatment (symbol c); conditions: for Effect on crop grade, c: corn: application herbicide amount 320 g/ha
From the text: as §5, §6

Cc1cc(Br)cc(C)c1C1=C(O)CC(CC(=O)C2CC2)C1=O (racemic) [10-004]
K: Lolium multiflorum Lam., herbicidal effect grade (Lolium multiflorum Lam.): 5 (Herbicidal ratio of 90% or more (almost completely withered)) | Herbicidal effect grade, C: Monochoria vaginalis (Monochoria vaginalis [1]): 0 (Herbicidal ratio of 5% or lower (almost no effect)) | Herbicidal effect grade, B: Scirpus juncoides (Scirpus juncoides): 0 (Herbicidal ratio of 5% or lower (almost no effect)) | A (Echinochloa oryzacola Vasing.) herbicidal effect grade [2]: 5 (Herbicidal ratio of 90% or more (almost completely withered)) | f: beet, effect on crop grade (beet [3]): 0 (Herbicidal ratio of 5% or lower (almost no effect)) | Effect on crop grade, f: beet (beet [4]): 0 (Herbicidal ratio of 5% or lower (almost no effect)) | Herbicidal effect grade, M: Abutilon theophrasti (Abutilon theophrasti): 0 (Herbicidal ratio of 5% or lower (almost no effect)) | Herbicidal effect grade, G: Setaria viridis (Setaria viridis): 5 (Herbicidal ratio of 90% or more (almost completely withered)) | b: directly sowed rice plant, effect on crop grade (rice plant): 5 (Herbicidal ratio of 90% or more (almost completely withered)) | J: Alopecurus myosuroides, herbicidal effect grade (Alopecurus myosuroides): 5 (Herbicidal ratio of 90% or more (almost completely withered)) | C (Monochoria vaginalis) herbicidal effect grade (Monochoria vaginalis [5]): 0 (Herbicidal ratio of 5% or lower (almost no effect)) | Effect on crop grade, e: wheat (wheat): 0 (Herbicidal ratio of 5% or lower (almost no effect)) | Herbicidal effect grade, A: Echinochloa oryzacola Vasing. [6]: 5 (Herbicidal ratio of 90% or more (almost completely withered)) | N: Amaranthus retroflexus, herbicidal effect grade (Amaranthus retroflexus): 0 (Herbicidal ratio of 5% or lower (almost no effect)) | Effect on crop grade, c: corn (corn): 5 (Herbicidal ratio of 90% or more (almost completely withered))

CON=C(C)CC1CC(OC(=O)C#C[Si](C)(C)C)=C(c2c(C)cc(C)cc2C)C1=O (centres unmarked) [1-096]
K: Lolium multiflorum Lam., herbicidal effect (criteria 0-5) (Lolium multiflorum Lam.): 5 (Herbicidal ratio of 90% or more (almost completely withered)) | Herbicidal effect grade, B: Scirpus juncoides (Scirpus juncoides): 5 (Herbicidal ratio of 90% or more (almost completely withered)) | Herbicidal effect grade, A: Echinochloa oryzacola Vasing. [2]: 5 (Herbicidal ratio of 90% or more (almost completely withered)) | f: beet, effect on crop (criteria 0-5) (beet [3]): 0 (Herbicidal ratio of 5% or lower (almost no effect)) | f: beet, effect grade on crop (beet [4]; 320 g/ha): 0 (Herbicidal ratio of 5% or lower (almost no effect)) | M: Abutilon theophrasti, herbicidal effect grade (Abutilon theophrasti; 320 g/ha): 4 (Herbicidal ratio of 70% or higher and lower than 90%) | G: Setaria viridis, herbicidal effect grade (Setaria viridis; 320 g/ha): 5 (Herbicidal ratio of 90% or more (almost completely withered)) | b: directly sowed rice plant, effect on crop (criteria 0-5) (rice plant): 5 (Herbicidal ratio of 90% or more (almost completely withered)) | J: Alopecurus myosuroides, herbicidal effect (criteria 0-5) (Alopecurus myosuroides): 5 (Herbicidal ratio of 90% or more (almost completely withered)) | Herbicidal effect grade, C: Monochoria vaginalis (Monochoria vaginalis [5]): 0 (Herbicidal ratio of 5% or lower (almost no effect)) | e: wheat, effect grade on crop (wheat; 320 g/ha): 3 (Herbicidal ratio of 40% or higher and lower than 70%) | Herbicidal effect grade, A: Echinochloa oryzacola Vasing. [6]: 5 (Herbicidal ratio of 90% or more (almost completely withered)) | N: Amaranthus retroflexus, herbicidal effect (criteria 0-5) (Amaranthus retroflexus): 2 (Herbicidal ratio of 20% or higher and lower than 40%) | c: corn, effect grade on crop (corn; 320 g/ha): 4 (Herbicidal ratio of 70% or higher and lower than 90%)

COCCON=C(CC1CC(O)=C(c2c(C)cc(-n3cc(Cl)cn3)cc2C)C1=O)C1CC1 (centres unmarked) [9-020]
K: Lolium multiflorum Lam., herbicidal effect grade (Lolium multiflorum Lam.): 5 (Herbicidal ratio of 90% or more (almost completely withered)) | Herbicidal effect grade, C: Monochoria vaginalis (Monochoria vaginalis [1]): 0 (Herbicidal ratio of 5% or lower (almost no effect)) | Herbicidal effect grade, B: Scirpus juncoides (Scirpus juncoides): 4 (Herbicidal ratio of 70% or higher and lower than 90%) | A (Echinochloa oryzacola Vasing.) herbicidal effect grade [2]: 5 (Herbicidal ratio of 90% or more (almost completely withered)) | f: beet, effect on crop grade (beet [3]): 0 (Herbicidal ratio of 5% or lower (almost no effect)) | Effect on crop grade, f: beet (beet [4]): 0 (Herbicidal ratio of 5% or lower (almost no effect)) | Herbicidal effect grade, M: Abutilon theophrasti (Abutilon theophrasti): 3 (Herbicidal ratio of 40% or higher and lower than 70%) | Herbicidal effect grade, G: Setaria viridis (Setaria viridis): 5 (Herbicidal ratio of 90% or more (almost completely withered)) | b: directly sowed rice plant, effect on crop grade (rice plant): 5 (Herbicidal ratio of 90% or more (almost completely withered)) | J: Alopecurus myosuroides, herbicidal effect grade (Alopecurus myosuroides): 5 (Herbicidal ratio of 90% or more (almost completely withered)) | C (Monochoria vaginalis) herbicidal effect grade (Monochoria vaginalis [5]): 1 (Herbicidal ratio of 5% or higher and lower than 20%) | Effect on crop grade, e: wheat (wheat): 0 (Herbicidal ratio of 5% or lower (almost no effect)) | Herbicidal effect grade, A: Echinochloa oryzacola Vasing. [6]: 4 (Herbicidal ratio of 70% or higher and lower than 90%) | N: Amaranthus retroflexus, herbicidal effect grade (Amaranthus retroflexus): 5 (Herbicidal ratio of 90% or more (almost completely withered)) | Effect on crop grade, c: corn (corn): 0 (Herbicidal ratio of 5% or lower (almost no effect))

COC(=O)C(C(=O)C1CC1)C1CC(O)=C(c2c(C)cc(Br)cc2C)C1=O (mixture of isomers) [10-002]
K: Lolium multiflorum Lam., herbicidal effect grade (Lolium multiflorum Lam.): 5 (Herbicidal ratio of 90% or more (almost completely withered)) | Herbicidal effect grade, C: Monochoria vaginalis (Monochoria vaginalis [1]): 0 (Herbicidal ratio of 5% or lower (almost no effect)) | Herbicidal effect grade, B: Scirpus juncoides (Scirpus juncoides): 0 (Herbicidal ratio of 5% or lower (almost no effect)) | A (Echinochloa oryzacola Vasing.) herbicidal effect grade [2]: 1 (Herbicidal ratio of 5% or higher and lower than 20%) | f: beet, effect on crop grade (beet [3]): 0 (Herbicidal ratio of 5% or lower (almost no effect)) | Effect on crop grade, f: beet (beet [4]): 0 (Herbicidal ratio of 5% or lower (almost no effect)) | Herbicidal effect grade, M: Abutilon theophrasti (Abutilon theophrasti): 0 (Herbicidal ratio of 5% or lower (almost no effect)) | Herbicidal effect grade, G: Setaria viridis (Setaria viridis): 4 (Herbicidal ratio of 70% or higher and lower than 90%) | b: directly sowed rice plant, effect on crop grade (rice plant): 4 (Herbicidal ratio of 70% or higher and lower than 90%) | J: Alopecurus myosuroides, herbicidal effect grade (Alopecurus myosuroides): 4 (Herbicidal ratio of 70% or higher and lower than 90%) | C (Monochoria vaginalis) herbicidal effect grade (Monochoria vaginalis [5]): 0 (Herbicidal ratio of 5% or lower (almost no effect)) | Effect on crop grade, e: wheat (wheat): 0 (Herbicidal ratio of 5% or lower (almost no effect)) | Herbicidal effect grade, A: Echinochloa oryzacola Vasing. [6]: 1 (Herbicidal ratio of 5% or higher and lower than 20%) | N: Amaranthus retroflexus, herbicidal effect grade (Amaranthus retroflexus): 0 (Herbicidal ratio of 5% or lower (almost no effect)) | Effect on crop grade, c: corn (corn): 0 (Herbicidal ratio of 5% or lower (almost no effect))

CC#Cc1cc(C)c(C2=C(OC(=O)COc3ccccc3)CC(CC(C)=NOCC(F)(F)F)C2=O)c(C)c1 (centres unmarked) [9-013]
K: Lolium multiflorum Lam., herbicidal effect grade (Lolium multiflorum Lam.): 5 (Herbicidal ratio of 90% or more (almost completely withered)) | Herbicidal effect grade, C: Monochoria vaginalis (Monochoria vaginalis [1]): 3 (Herbicidal ratio of 40% or higher and lower than 70%) | Herbicidal effect grade, B: Scirpus juncoides (Scirpus juncoides): 5 (Herbicidal ratio of 90% or more (almost completely withered)) | A (Echinochloa oryzacola Vasing.) herbicidal effect grade [2]: 5 (Herbicidal ratio of 90% or more (almost completely withered)) | f: beet, effect on crop grade (beet [3]): 4 (Herbicidal ratio of 70% or higher and lower than 90%) | Effect on crop grade, f: beet (beet [4]): 5 (Herbicidal ratio of 90% or more (almost completely withered)) | Herbicidal effect grade, M: Abutilon theophrasti (Abutilon theophrasti): 3 (Herbicidal ratio of 40% or higher and lower than 70%) | Herbicidal effect grade, G: Setaria viridis (Setaria viridis): 5 (Herbicidal ratio of 90% or more (almost completely withered)) | b: directly sowed rice plant, effect on crop grade (rice plant): 5 (Herbicidal ratio of 90% or more (almost completely withered)) | J: Alopecurus myosuroides, herbicidal effect grade (Alopecurus myosuroides): 5 (Herbicidal ratio of 90% or more (almost completely withered)) | C (Monochoria vaginalis) herbicidal effect grade (Monochoria vaginalis [5]): 1 (Herbicidal ratio of 5% or higher and lower than 20%) | Effect on crop grade, e: wheat (wheat): 4 (Herbicidal ratio of 70% or higher and lower than 90%) | Herbicidal effect grade, A: Echinochloa oryzacola Vasing. [6]: 5 (Herbicidal ratio of 90% or more (almost completely withered)) | N: Amaranthus retroflexus, herbicidal effect grade (Amaranthus retroflexus): 0 (Herbicidal ratio of 5% or lower (almost no effect)) | Effect on crop grade, c: corn (corn): 5 (Herbicidal ratio of 90% or more (almost completely withered))
